Data as given in article PMC8910697, “Development of VPC-70619, a Small-Molecule N-Myc Inhibitor as a Potential Therapy for Neuroendocrine Prostate Cancer” (International Journal of Molecular Sciences, 2022).
Read-outs that look alike come from different tables or passages of the source.

Legend:
[1] = Pharmacokinetics after IP and PO dosing; assay type: in vivo, male Balb/c mice; conditions: 10 mg/kg; for half-life / Cmax: male, Balb/c, mouse, plasma; for Cmax: 70551 in 75:25 PG/PEG 400, 70619 in 20:80 Kolliphor EL
Procedure: In order to characterize VPC-70619 as a drug candidate against N-myc, its pharmacokinetic (PK) characteristics were evaluated in Balb/c mice following intraperitoneal (IP) and peroral (PO) administrations. As presented in Figure 5, we determined the PK properties of VPC-70619 and compared it to the parental molecule, VPC-70551. […] The clearance of 70551 for PO delivery was extremely slow, and we could not determine the T1/2 in the experimental conditions used for this assay. […] Therefore, VPC-70619 was deemed to have appropriate efficacy in vivo, and a better pharmacokinetic profile due to higher bioavailability for both oral and intraperitoneal administration.
Bienta Enamine Biology Services (Kyiv, Ukraine) conducted PK studies according to the Enamine PK study protocols and Institutional Animal Care and Use Guidelines. The PK studies were reviewed and approved by the Bienta Animal Care and Use Committee (BACUC) under the project identification codes PK-VPC-112618 (approved 17 December 2018) and PK-VPC-101119 (approved 21 October 2019), for VPC-70551 and […], respectively. Evaluation of 70619 and 70551 was conducted in male Balb/c mice through intraperitoneal (IP) and peroral (PO) administration. Measurements were taken at six time points: 5, 15, 60, 120, 240, and 360 min for IP; 15, 30, 60, 120, 240, and 480 min for PO. Four mice were included in each treatment group for each time point; one mouse each for IP and PO was included as a control. Initial target administration for both IP and PO was 10 mg/kg dose level, 2 mg/mL dose concentration, and 5 mL/kg dose volume. Concentration of the compounds was evaluated in the plasma samples using an LC-MS/MS system.

[2] = test system: NCI-H660 cells; experiment: Cell viability (CellTiter-Glo), NCI-H660; assay type: cell-based
Procedure: Viability of N-Myc positive (IMR32and NCI-H660) and negative (HO15.19) cells were determined using the CellTiter-Glo Luminescent Cell Viability Assay (Promega cat. G7570) (Madison, WI, USA). Cells were seeded into a 96-well white plate with a clear bottom: 10,000 cells per well for the IMR32 cells cultured in EMEM supplemented with 10% FBS, 2000 HO15.19 cells per well in Eagle’s minimum essential medium (EMEM) supplemented with 10% FBS, and 2000 cells per well for the NCI-H660 neuroendocrine cells cultured in RPMI supplemented 5% FBS, 1% Insulin-Transferrin-Selenium (Thermo Fisher, 41400-045), 10nM b-estradiol (Sigma, E8875), 10nM hydrocortisone (Sigma H0888) and 1% matrigel. Following 24 h incubation, the cells were treated with serial dilutions of the derivatives along with the respective parental compound starting at 25 μM for 72 h. Cell Titer Glo was added to each well at a ratio of 1:1 and incubated on a shaker at RT for 2 min. Luminescence and IC50 was measured with the TECAN InfiniteM200 plate reader (Männedorf, Switzerland).

[3] = test system: IMR32 cells; experiment: Cell viability (CellTiter-Glo), IMR32; assay type: cell-based; conditions: Homo sapiens, IMR-32
Summary of the method: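 IMR32 cells (10,000/well) and HO15.19 cells (2000/well), both in EMEM with 10% FBS, were seeded 24 h before 72 h exposure to serial compound dilutions starting at 25 μM. Viability was read by CellTiter-Glo luminescence to give IC50. Single-point testing used 10 µM.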

[4] = molecular target: T1, N-Myc-Max complex (Homo sapiens, UniProt P04198+P61244); experiment: Microscale thermophoresis (MST) binding; conditions: for binding to N-Myc-Max complex (in words): MST
T1 construct: N-Myc (amino acids 309–394) and Max (amino acids 12–93); 6xHis (N); made in house; host or cells: E. coli BL21
T1 sequence (P04198 379-464 limits assumed): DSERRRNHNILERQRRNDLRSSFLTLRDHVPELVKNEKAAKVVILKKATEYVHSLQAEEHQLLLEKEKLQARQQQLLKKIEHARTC
T1 sequence (P61244 12-93 isoform P61244-2 limits assumed): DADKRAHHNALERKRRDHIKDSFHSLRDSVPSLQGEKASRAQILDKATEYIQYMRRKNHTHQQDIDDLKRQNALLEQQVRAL
From the text: We first performed a microscale thermophoresis (MST) assay to validate the direct binding of VPC-70619 to the recombinant N-Myc-Max complex and to calculate the binding affinity. We evaluated the effect of increasing concentrations of 70619 on the movement of a fluorescent labelled N-Myc-Max complex through a temperature gradient induced by an infrared laser.
The bHLHLZ domain of N-Myc (amino acids 309–394) and Max (amino acids 12–93) protein sequences were cloned into pETDuet with an N-terminal 6×His. pETDuet-His-NMyc-Max was transformed and expressed in E. coli BL21 and induced with 0.5 mM isopropyl-β-D-thiogalactopyranoside (IPTG) at 16 °C overnight. The cultures were lysed by sonication and combined for purification by immobilized metal ion chromatography (IMAC) with nickel-nitrilotriacetic acid (Ni-NTA) resin. The bound proteins were eluted from the column with 20 mM Tris, pH = 8, 500 mM NaCl, 5% glycerol, 300 mM imidazole, 5 mM βMe, and 0.1 mM PMSF. Size exclusion chromatography with Superdex 75 was used to increase the purity of the N-Myc-Max protein sample. The purified protein complex was used in subsequent BLI and MST experiments.
An MST assay was conducted to determine the binding affinity of 70619 to the purified N-Myc-Max protein complex. N-Myc-Max protein samples were labeled with the red fluorescent dye NT647 using the Monolith NT Protein labeling kit RED-NHS amine-reactive (NanoTemper Technologies, München, Germany); 70619 was serial diluted with 100% DMSO and mixed with the labeled fluorescent N-Myc-Max (final concentration of protein: 5 nM) in the assay reaction buffer (20 mM Tris, pH = 8, 100 mM NaCl, 0.2 mM TCEP, 0.1 mM PMSF, 5% glycerol) starting at 600 μM, with a final concentration of DMSO of 5%. The protein/inhibitor solution was mixed and incubated at room temperature in the dark for 5 min before being filled into the capillaries. […] Analysis of the data for Kd estimation was calculated with the MO Affinity Analysis software from Nanotemper (München, Germany).

Work on `N#Cc1ccc(NNC(=O)c2ccc(C#N)c(Cl)c2)c(C(F)(F)F)c1` [compound 70619] yielded a half-life ([1]; ip, read-out: plasma half-life (T1/2) IP) of 5.5 h, a half-life ([1]; po, read-out: plasma half-life (T1/2) PO) of 7.12 h and a Cmax ([1]; IP, read-out: Cmax IP) of 29500 ng/mL. The Cmax ([1]; PO, read-out: Cmax PO) was 24000 ng/mL, the “adverse effects / signs of toxicity in PK animals” value ([1]; single dose IP or PO) was “No signs of toxicity” and the IC50 ([2]; NCI-H660, 72 h, read-out: IC50 cell proliferation in NCI-H660) was 7 µM. The “inhibition of NCI-H660 (in words)” value ([2]; NEPC in vitro model) was “good inhibition”, the inhibition at 10 µM [3] was 99.4% and the “binding to N-Myc-Max complex (in words)” value [4] was “bind weakly”. For the same molecule, the “binding to N-Myc-Max complex (in words)” value ([4]; listed as VPC-70619) was “somewhat weak affinity” and the Kd ([4]; estimate, limited solubility in assay buffer, read-out: dissociation constant) was > 130 µM.
